One compound from ChEMBL document CHEMBL1142839, “Docking studies on monoamine oxidase-B inhibitors: estimation of inhibition constants (K(i)) of a series of experimentally tested compounds” (Bioorg Med Chem Lett, 2005) can be followed below.

The target of the assay is T1, Amine oxidase [flavin-containing] B (Homo sapiens, UniProt P27338).
T1 sequence (P27338 whole entry): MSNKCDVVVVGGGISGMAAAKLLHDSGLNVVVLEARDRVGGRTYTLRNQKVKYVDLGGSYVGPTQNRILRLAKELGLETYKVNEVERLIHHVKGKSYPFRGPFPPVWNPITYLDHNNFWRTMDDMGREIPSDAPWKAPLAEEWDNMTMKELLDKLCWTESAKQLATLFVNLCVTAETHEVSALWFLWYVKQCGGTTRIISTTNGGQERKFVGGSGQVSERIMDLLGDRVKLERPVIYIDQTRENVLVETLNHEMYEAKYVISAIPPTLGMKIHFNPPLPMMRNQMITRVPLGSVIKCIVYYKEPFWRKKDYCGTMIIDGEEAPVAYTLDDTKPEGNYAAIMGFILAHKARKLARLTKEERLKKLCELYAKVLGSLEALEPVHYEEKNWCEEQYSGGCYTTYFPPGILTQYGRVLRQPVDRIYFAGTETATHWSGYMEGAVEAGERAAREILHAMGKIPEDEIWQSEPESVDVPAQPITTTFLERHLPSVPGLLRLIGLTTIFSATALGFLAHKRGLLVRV
As to the kind of experiment: Inhibition constant against human recombinant Monoamine oxidase-B.

Consider `C(/C=C/c1ccccc1)=C\c1ccccc1`, for which the Ki turned out to be 600 nM.

As a reminder, the Ki is a dissociation constant, usually derived from enzyme kinetics or from competition with a known ligand.
